Results published in ChEMBL document CHEMBL1133916, “The discovery of anthranilic acid-based MMP inhibitors. Part 2: SAR of the 5-position and P1(1) groups” (Bioorg Med Chem Lett, 2001).

How the values were obtained:
Interstitial collagenase = target: T1, Interstitial collagenase (Homo sapiens, UniProt P03956); experiment: In vitro inhibition of Matrix metalloprotease-1
T1 sequence (P03956 whole entry): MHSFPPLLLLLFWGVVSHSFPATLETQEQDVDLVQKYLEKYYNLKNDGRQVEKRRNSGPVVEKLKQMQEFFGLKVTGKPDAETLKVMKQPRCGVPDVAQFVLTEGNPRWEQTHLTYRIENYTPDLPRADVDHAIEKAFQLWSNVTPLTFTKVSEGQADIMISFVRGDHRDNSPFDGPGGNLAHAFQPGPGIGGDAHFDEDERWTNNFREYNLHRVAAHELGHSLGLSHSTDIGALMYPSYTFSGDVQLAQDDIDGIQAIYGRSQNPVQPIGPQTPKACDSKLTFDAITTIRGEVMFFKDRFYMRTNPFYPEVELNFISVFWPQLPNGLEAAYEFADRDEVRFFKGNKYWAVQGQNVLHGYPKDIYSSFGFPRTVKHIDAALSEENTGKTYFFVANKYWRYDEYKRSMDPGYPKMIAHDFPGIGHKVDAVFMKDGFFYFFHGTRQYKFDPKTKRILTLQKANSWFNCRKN

Collagenase 3 [1] = target: T2, Collagenase 3 (Homo sapiens, UniProt P45452)
[2] = target: T3, Matrix metalloproteinase-9 (Homo sapiens, UniProt P14780); experiment: In vitro ability to inhibit matrix metalloprotease-9.
[3] = target: T4, Disintegrin and metalloproteinase domain-containing protein 17 (Homo sapiens, UniProt P78536); experiment: In vitro inhibition of TNF-alpha converting enzyme (TACE)
Collagenase 3 [4] = target: T2, Collagenase 3; experiment: Inhibition of matrix metalloprotease-13; details: concentration not given here
[5] = target: T3, Matrix metalloproteinase-9; experiment: Inhibition of Matrix metalloprotease-9 at 1 uM
[6] = target: T5, Interstitial collagenase (Homo sapiens) (UniProt P03956); experiment: Inhibition of Matrix metalloprotease-1 at 10 uM
T5 sequence (whole entry): T1 sequence (P03956 whole entry)

[7] = target: T4, Disintegrin and metalloproteinase domain-containing protein 17; experiment: Inhibition of TNF-alpha converting enzyme (TACE) at 1 uM
[8] = target: T5, Interstitial collagenase (Homo sapiens); experiment: Inhibition of Matrix metalloprotease-1 at 1 uM
Bos taurus = organism: Bos taurus; experiment: Percent inhibition of cartilage degradation at 1 uM in a bovine articular cartilage explant assay; format: functional; details: Cartilage tissue
Rattus norvegicus = experiment: Percent inhibition of collagen degradation at an oral dose of 50 mg/kg/bid in an in vivo rat sponge-wrapped cartilage model; format: functional

T4 sequence (P78536 whole entry, the tested form may be a part): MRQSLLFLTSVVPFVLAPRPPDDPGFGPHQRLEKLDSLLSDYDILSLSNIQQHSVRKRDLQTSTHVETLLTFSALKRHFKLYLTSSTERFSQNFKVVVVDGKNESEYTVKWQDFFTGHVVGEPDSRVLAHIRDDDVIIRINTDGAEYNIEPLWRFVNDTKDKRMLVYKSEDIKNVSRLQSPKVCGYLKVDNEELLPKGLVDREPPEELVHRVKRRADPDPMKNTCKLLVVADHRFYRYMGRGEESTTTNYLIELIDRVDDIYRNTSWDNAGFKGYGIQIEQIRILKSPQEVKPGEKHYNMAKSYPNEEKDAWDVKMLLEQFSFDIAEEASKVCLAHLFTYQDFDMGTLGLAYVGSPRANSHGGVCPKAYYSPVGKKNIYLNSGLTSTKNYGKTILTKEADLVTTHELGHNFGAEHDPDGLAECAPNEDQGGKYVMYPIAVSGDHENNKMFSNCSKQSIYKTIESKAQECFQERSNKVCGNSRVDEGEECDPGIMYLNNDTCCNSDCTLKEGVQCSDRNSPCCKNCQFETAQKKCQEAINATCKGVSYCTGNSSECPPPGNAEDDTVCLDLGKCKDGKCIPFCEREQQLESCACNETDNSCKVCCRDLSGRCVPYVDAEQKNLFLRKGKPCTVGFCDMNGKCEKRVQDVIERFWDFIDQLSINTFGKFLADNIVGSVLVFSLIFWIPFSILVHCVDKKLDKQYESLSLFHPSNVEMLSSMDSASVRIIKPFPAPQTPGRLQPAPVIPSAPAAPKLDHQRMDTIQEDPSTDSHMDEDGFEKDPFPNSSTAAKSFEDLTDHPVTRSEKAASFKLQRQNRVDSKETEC
T3 sequence (P14780 whole entry, the tested form may be a part): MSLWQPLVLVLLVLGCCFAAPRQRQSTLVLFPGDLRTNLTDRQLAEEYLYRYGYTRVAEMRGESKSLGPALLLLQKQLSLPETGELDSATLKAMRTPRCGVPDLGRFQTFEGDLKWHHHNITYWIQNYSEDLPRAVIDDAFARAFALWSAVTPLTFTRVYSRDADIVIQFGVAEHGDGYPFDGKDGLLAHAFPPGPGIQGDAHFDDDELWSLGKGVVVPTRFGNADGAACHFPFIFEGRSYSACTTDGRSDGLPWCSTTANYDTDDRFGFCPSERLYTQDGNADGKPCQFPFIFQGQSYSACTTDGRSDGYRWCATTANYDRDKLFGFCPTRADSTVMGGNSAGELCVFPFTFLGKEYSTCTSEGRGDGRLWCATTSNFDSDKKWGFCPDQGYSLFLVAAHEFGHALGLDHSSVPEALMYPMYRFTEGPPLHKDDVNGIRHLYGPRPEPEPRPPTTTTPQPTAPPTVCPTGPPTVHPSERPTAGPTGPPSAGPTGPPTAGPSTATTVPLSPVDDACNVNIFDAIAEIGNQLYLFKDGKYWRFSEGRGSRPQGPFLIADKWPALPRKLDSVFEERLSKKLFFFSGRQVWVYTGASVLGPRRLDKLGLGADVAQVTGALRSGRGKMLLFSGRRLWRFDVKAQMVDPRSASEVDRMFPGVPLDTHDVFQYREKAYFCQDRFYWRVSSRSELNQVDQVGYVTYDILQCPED

Row | SMILES | IC50 [2] | IC50 [3] | IC50 (Interstitial collagenase) | IC50 (Collagenase 3 [1]) | other results
1 | Cc1cc(Br)cc(C(=O)NO)c1N(C)S(=O)(=O)c1ccc(-c2ccc(OCc3ccsc3)cc2)cc1 | 232 nM | 56 nM | 4640 nM | 142 nM | 
2 | Cc1cc(Br)cc(C(=O)NO)c1N(C)S(=O)(=O)c1ccc(-c2ccc(OCc3cccnc3)cc2)cc1 |  | 28 nM |  |  | inhibition (Collagenase 3 [4]): 48%; inhibition [5]: 28%; inhibition [6]: 42%
3 | CCN(CC)Cc1cc(C)c(N(Cc2ccccc2)S(=O)(=O)c2ccc(OC)cc2)c(C(=O)NO)c1 |  |  |  |  | inhibition [7]: 44%
4 | Cc1cc(C)c(N(Cc2ccccc2)S(=O)(=O)c2ccc(Oc3ccccc3)cc2)c(C(=O)NO)c1 | 4 nM |  | 376 nM | 6 nM | inhibition [7]: 37%
5 | CCCCOc1ccc(S(=O)(=O)N(Cc2ccccc2)c2c(C)cc(C)cc2C(=O)NO)cc1 |  |  |  |  | inhibition [8]: 33%
6 | CN(c1ccccc1C(=O)NO)S(=O)(=O)c1ccc(Oc2ccncc2)cc1 | 153 nM |  |  | 38 nM | inhibition [8]: 48%; inhibition [7]: 22%
7 | COc1ccc(S(=O)(=O)N(Cc2cccnc2)c2c(C)cc(-c3ccc4ccccc4c3)cc2C(=O)NO)cc1 | 2 nM | 194 nM | 745 nM | 1 nM | inhibition at 1 µM (Bos taurus): 83%
8 | Cc1cc(Br)cc(C(=O)NO)c1N(C)S(=O)(=O)c1ccc(-c2ccc(OCc3nccs3)cc2)cc1 | 952 nM | 23 nM |  | 661 nM | inhibition [6]: 45%
9 | COc1ccc(S(=O)(=O)N(Cc2cccnc2)[C@@H](C(=O)NO)C(C)C)cc1 [CGS-27023A] |  | 231 nM |  |  | inhibition in vivo at 50 mg/kg (Rattus norvegicus): 51%; inhibition at 1 µM (Bos taurus): 70%
10 | COc1ccc(S(=O)(=O)N(Cc2cccnc2)c2c(C)cc(-c3ccccc3)cc2C(=O)NO)cc1 |  |  |  | 4 nM | inhibition at 1 µM (Bos taurus): 70%
11 | Cc1cc(C)c(N(C)S(=O)(=O)c2ccc(Sc3ccccc3)cc2)c(C(=O)NO)c1 | 8 nM | 727 nM | 1310 nM | 3 nM | 
12 | COc1ccc(-c2ccc(S(=O)(=O)N(Cc3cccnc3)c3c(C)cccc3C(=O)NO)cc2)cc1 | 152 nM |  | 2270 nM | 18 nM | inhibition [7]: 4%
13 | COc1ccc(S(=O)(=O)N(Cc2cccnc2)c2c(C(=O)NO)cc(C)cc2-c2ccccc2)cc1 | 7 nM | 133 nM | 103 nM | 3 nM | 
14 | Cc1cc(Br)cc(C(=O)NO)c1N(C)S(=O)(=O)c1ccc(-c2ccc(OCc3ccccc3)cc2)cc1 | 189 nM | 57 nM |  | 163 nM | inhibition [6]: 57%
15 | Cc1cc(C)c(N(Cc2ccccc2)S(=O)(=O)c2ccc(OCc3ccccc3)cc2)c(C(=O)NO)c1 |  |  |  |  | inhibition [8]: 25%
16 | Cc1cccc(C(=O)NO)c1N(C)S(=O)(=O)c1ccc(Oc2ccncc2)cc1 | 7 nM |  |  |  | inhibition in vivo at 50 mg/kg (Rattus norvegicus): 35%; inhibition at 1 µM (Bos taurus): 83%; inhibition [7]: 32%
17 | Cc1cc(Br)cc(C(=O)NO)c1N(C)S(=O)(=O)c1ccc(Oc2ccc(C(C)(C)C)cc2)cc1 | 125 nM |  |  | 44 nM | inhibition [8]: 25%; inhibition [7]: 19%
18 | Cc1cccc(C(=O)NO)c1N(Cc1cccnc1)S(=O)(=O)c1ccc(-c2ccc3c(c2)OCO3)cc1 |  |  |  |  | inhibition [5]: 43%; inhibition [7]: 9%; inhibition [6]: 37%

Second part, led by results:

Row | IC50 [2] | IC50 [3] | SMILES | IC50 (Interstitial collagenase) | IC50 (Collagenase 3 [1]) | other results
19 |  | 231 nM | COc1ccc(S(=O)(=O)N(Cc2cccnc2)c2c(C)cccc2C(=O)NO)cc1 |  |  | 
20 | 8 nM |  | COc1ccc(S(=O)(=O)N(Cc2cccnc2)c2c(C(=O)NO)cc(C)cc2-c2ccco2)cc1 | 18 nM | 1 nM | 
21 | 1 nM |  | COc1ccc(S(=O)(=O)N(Cc2cccnc2)c2c(C)cc(-c3cccc(C(F)(F)F)c3)cc2C(=O)NO)cc1 |  |  | 
22 | 2 nM | 633 nM | COc1ccc(S(=O)(=O)N(Cc2cccnc2)c2c(C)cc(N(C)C)cc2C(=O)NO)cc1 | 74 nM | 39 nM | 
23 |  | 70 nM | COc1ccc(S(=O)(=O)N(Cc2cccnc2)c2c(C)cc(C)cc2C(=O)NO)cc1 |  |  | 
24 | 3450 nM | 285 nM | Cc1cc(Br)cc(C(=O)NO)c1N(Cc1ccccc1)S(=O)(=O)c1ccc(OCc2ccccc2)cc1 |  |  | inhibition [6]: 18%
25 |  | 43 nM | COc1ccc(S(=O)(=O)N(Cc2cccnc2)c2c(C)cc(Br)cc2C(=O)NO)cc1 | 124 nM |  | 
